In US8058462B2, “Ligand modified poly oxo-hydroxy metal ion materials, their uses and processes for their preparation” (Medical Research Council, priority 2007, dated 2011):

Legend:
Type in all cases: physicochemical
[1] = Screening assay: formation (precipitation) of solid poly oxo-hydroxy iron in presence of ligand; details: ratios 1:1 to 1:5
Method: A series of dietary ligands was tested in a screening assay for their effects on the formation of solid ligand-modified poly oxo-hydroxy metal ion materials. Briefly, in a centrifuge tube, a fixed volume of stock solution of ferric iron (400 mM FeCl3 with 50 mM MOPS, pH 1.4) was mixed with varying volumes of a stock solution of ligand (400 mM with the exception of maltol which was 200 mM, plus MOPS at 50 mM and 0.9% NaCl) to obtain the desired metal:ligand ratio. The volumes were then equally adjusted to parity with a solution of 50 mM MOPS and 0.9% NaCl. […] A small aliquot was taken to confirm the starting iron concentration and then the pH was raised to ˜6.5 by drop-wise addition of concentrated NaOH to avoid high volume changes. After centrifugation at 2500 rpm for 10 minutes, an aliquot of supernatant was taken to analyse the iron remaining in solution. The remaining supernatant was discarded and a fixed volume of dissolution buffer at pH 6 (MOPS10 mM) or pH 4 (Acetic acid 10 mM) was then added to the wet solid of each tube and incubated overnight at room temperature. The tubes were then centrifuged (2500 rpm for 10 minutes) and an aliquot of supernatant taken to determine the iron that was disaggregated. The iron concentration in each aliquot was measured by ICPOES analysis.
Initially, the ligands were all tested using the screening assay described above at ratios of 1:1 to 1:5 and classified in three groups.

[2] = In vitro gastrointestinal digestion assay (simulated stomach and duodenum); details: pH 1.2
Method: An amount of the solid ligand-modified poly oxo-hydroxy ferric iron materials or control iron materials namely ferrous sulphate, ferric chloride, or unmodified ferric oxo-hydroxide, equivalent to 60 mg elemental iron, were added to a synthetic gastric (stomach) solution (50 mL of 2 g/L NaCl, 0.15 M HCl and 0.3 mg/mL porcine pepsin) and incubated at 37° C. for 30 minutes with radial shaking. […] The mixture was incubated at 37° C. for 60 min with radial shaking. Homogeneous Aliquots (1 mL) were collected at different time points during the process and centrifuged at 13,000 rpm for 10 minutes to separate the aggregate and aquated phases. The supernatant was analysed for iron content by ICPOES. […] The mass of remaining material (i.e. the wet pellet) was recorded. Concentrated HNO3 was added to this wet pellet and the new mass recorded. […] The starting amount of iron was calculated from the iron in the wet pellet plus the iron in the supernatant. To differentiate between soluble iron and aquated particulate iron in the supernatant, at each time point, this fraction was also ultrafiltered (Vivaspin 3,000 Da molecular weight cut-off polyethersulfone membrane, Sartorius Stedium Biotech GmbH, Goettingen, Germany) and again analysed by ICPOES. […]

[3] = Screening assay: re-dissolution of the wet solid in pH 6 and pH 4 buffers; details: solid formed with the ligand
Method: A series of dietary ligands was tested in a screening assay for their effects on the formation of solid ligand-modified poly oxo-hydroxy metal ion materials. […] The volumes were then equally adjusted to parity with a solution of 50 mM MOPS and 0.9% NaCl. […] After centrifugation at 2500 rpm for 10 minutes, an aliquot of supernatant was taken to analyse the iron remaining in solution. […] The iron concentration in each aliquot was measured by ICPOES analysis.

Structure (SMILES)	Ligand group by effect on the amount of solid material formed [1]	other results
O=C(O)CC(O)C(=O)O (centres unmarked) [malic acid]	intermediate ligands	
O=S(=O)([O-])[O-].[Fe+2] [Ferrous sulphate, ferrous sulphate]		gastric disaggregation and dissolution profile (in words) [2]: disaggregates and dissolves very well
Cc1occc(=O)c1O [maltol]		re-dissolution of the iron at pH 6.0 (in words) [3]: did not promote any re-dissolution
NC(=O)CC[C@H](N)C(=O)O [glutamine]	intermediate ligands	
O=C(O)C(O)C(O)C(=O)O (centres unmarked) [tartaric acid]	intermediate ligands	
